One assay has as its system 3T3-L1 adipocytes. The assay can be described thus: Fatty acid oxidation assay. The assay is classed as cell-based, mouse. The note with it: 100 nM insulin or 5 μM 4524-E7; normalized to DMSO-treated cells. How it is done: (A) 4524-E7 activates IR phosphorylation and its downstream signaling in 3T3-L1 adipocytes. […] The cells were lysed, and immunoprecipitated with PY20, and followed by Western blot using specific antibodies. (B) 4524-E7 stimulates glucose uptake in 3T3-L1 adipocytes. […] [3H]2-deoxyglucose was added, and the cells were further incubated for 10 min. The amount of [3H]2-deoxyglucose taken by adipocytes was measured. (C) 4524-E7 inhibits fatty acid oxidation. […] Results were normalized to DMSO-treated cells and expressed as mean±S.E.M. (*: P<0.05; **:P<0.01, Student's t-test, n=3). (D) IR knockdown in adipocytes decreases IR signaling by 4524-E7. […] Cells lysates were collected and analyzed by Western blot. (E) The glucose uptake induced by 4524-E7 in p85α knockout MEF cells. […] The uptaken [3H] 2-deoxyglucose was monitored by liquid scintillation counter. Results were expressed as mean±S.E.M. (*: P<0.05; **:P<0.01, Student's t-test, n=3).
Fatty acid oxidation was measured by determining the production of 3H2O from [9, 10-3H] palmitate. Differentiated NIH3T3-L1 were plated (0.5×10^5 cell per well) in a 12-well plate for 1 day. […] After incubation, the medium was removed and extracted with Chloroform/Methanol (2:1), and the aqueous phase containing 3H2O was collected and used for radioactivity measurement in a liquid scintillation counter.

The next assay relates to ob/ob mice. The assay can be described thus: Intraperitoneal glucose tolerance test in ob/ob mice. The assay is classed as in vivo, mouse. The note with it: 5 mg/kg oral, glucose 2 g/kg i.p. 1 hour later. On the procedure:
Three-month-old mice were starved for 12 h and then orally administrated with vehicle (0.5% methylcellulose) or DDN (5 mg/kg). Cell lysates were prepared from liver and muscle tissues collected at 1 and 2 h after drug administration and analyzed by immunoprecipitation and immunoblotting. […] Three-month-old mice were starved for 12 h and then orally administrated with vehicle (0.5% methylcellulose) or DDN (5 mg/kg). Cell lysates were prepared from liver and muscle tissues collected at 1 and 2 h after drug administration and analyzed by immunoprecipitation and immunoblotting. (C) Hypoglycemic function of DDN in db/db mice. […] Blood glucose was monitored before and after drug administration at 1-hour intervals (*: P<0.05, **: P<0.01, n=5, Two-way ANOVA vs vehicle). […] Blood glucose was measured at 30-min intervals (*: P<0.05, **:P<0.01, n=5, Two-way ANOVA vs vehicle control).
(A) 4524-E7 provokes IR phosphorylation in various tissues of mice. […] Cell lysates from liver, muscle, and WAT were prepared at 3, 4, and 5 h after drug administration and analyzed by immunoblotting. (B) Basal and insulin-stimulated hepatic glucose production rates were measured by hyperinsulinemic-euglycemic clamp. […] Blood glucose was monitored at different time points as indicated (n=8, *: P<0.05, two-way ANOVA). […] Blood glucose was monitored at different time points as indicated (n=5, *: P<0.05, two-way ANOVA). […]

Turning to `O=C1c2ccccc2C(=O)C2SC(Nc3ccc(Cl)cc3)=NC12` (stereo not shown) [4524-E7, 2-((4-chlorophenyl)amino)naphtho[2,3-d]thiazole-4,9(3aH,9aH)-dione], in the assay on 3T3-L1 adipocytes, the lipid oxidation is reported as ~50 % of the control. Also, the glucose tolerance entry with ob/ob mice was “significant improvement of glucose tolerance”.
For `CC(=O)Oc1ccc(OC(C)=O)c2c1C(=O)C(Cl)=C(Cl)C2=O` [DDN, 5,8-diacetyloxy-2,3-dichloro-1,4-naphthoquinone], the glucose tolerance result in the assay with ob/ob mice is on record as “significant improvement in glucose tolerance”.
Consider “insulin: insulin, used as positive control”, for which the lipid oxidation in the assay on 3T3-L1 adipocytes was ~70 % of the control.

The values are drawn from US9040713B2, “Methods of managing blood sugar levels and compositions related thereto” (EMORY UNIVERSITY, priority 2010, dated 2015).
